Data reported in patent US8524860B2, “Peptides with capacity to bind to scurfin and applications” (Proyecto de Biomedicina CIMA, S.L., priority 2007, dated 2013).
No end group written: not given here.

Key:
murine Treg lymphocytes [1] = assay: Murine MLR (BALB/c effector lymphocytes with C57BL/6 dendritic cells) with BALB/c Treg lymphocytes, tritiated thymidine incorporation; type: cell-based, mouse; conditions: 100 μM
Experimental: Secondly, mixed lymphocyte reaction (MLR) assays were carried out. The effector lymphocytes isolated from BALB/c mice (10^5 cells/well) were co-cultured with purified dendritic cells from C57BL/6 mice (Charles River), in the presence or absence of BALB/c Treg lymphocytes and in the presence or absence of peptide P60 (SEQ ID NO: 1) (100 μM). The measurement of the cell proliferation was carreid out by means of a conventional tritiated thymidine incorporation assay as has been previously described.

murine Treg lymphocytes [2] = assay: Co-culture of OT-1 transgenic mouse effector lymphocytes with dendritic cells, SIINFEKL antigen and Treg lymphocytes, IFN-γ ELISA; type: cell-based; conditions: 100 μM, SIINFEKL 10 μg/ml, OT-1 effector lymphocytes
Experimental: Thirdly, the effect of peptide P60 (SEQ ID NO: 1) was measured in an assay based on co-culturing splenocytes from OT-1 transgenic mice (the T lymphocytes of which have a specific T cell receptor for the peptide SIINFEKL (SEQ ID NO: 7) of ovalbumin, which were kindly provided by Dr Melero, CIMA Pamplona) with Treg lymphocytes in the presence of antigen (SEQ ID NO: 7) and in the presence or absence of Treg lymphocytes. […] The effector lymphocytes isolated from OT-1 transgenic mice (10^5 cells/well) were co-cultured with dendritic cells from C57BL/6 mice and the peptide SIINFEKL (SEQ ID NO: 7) (10 μg/ml), in the presence or absence of 2×10^4 BALB/cregulatory T cells and in the presence or absence of peptide P60 (SEQ ID NO: 1) (100 μM).

[3] = tested on: inhibition of the activation of transcription factor NF-κB by scurfin; assay: NF-κB luciferase reporter in 293 cells transfected with pcDNA-Foxp3; type: cell-based; conditions: 100 μM, 24 hours
Text: It has been described that the presence of scurfin can inhibit the activation of the transcription factor NF-kB in 293 cells (Betelli et al, Proc Natl Acad Sci USA. 2005 102:5138-43). Based on this work, the effect of the addition of peptide P60 (SEQ ID NO: 1) to a culture of 293 cells transfected with a plasmid expressing the foxp3 gene, kindly provided by Dr Oukka and previously described (Betelli et al, Proc Natl Acad Sci USA. 2005 102:5138-43) and to a culture of 293 cells transfected with a control plasmid together with a plasmid expressing luciferase under a promoter inducible by NF-κB (Ref 631904, pNF-kB-Luc, Clontech) has been studied. The 293 cells were transfected by means of using lipofectamine with plasmid pNF-kB-Luc expressing luciferase under a promotor inducible by transcription factor NF-kB, in the presence or absence of plasmid pcDNA, pcDNA-Foxp3 and peptide P60 (SEQ ID NO: 1) (100 μM). After 24 hours of culture, the cells were harvested and the luciferase activity in the cell extracts was measured by means of using a suitable kit (Promega, Maddison, USA) and the luminometer (Orion Microplate luminometer, Berthold detection systems, Germany).

human Treg lymphocytes [4] = assay: MLR of PBMCs from 2 donors with human Treg lymphocytes, tritiated thymidine incorporation; type: cell-based; conditions: 100 μM, 3 days of culture
Experimental: To carry out the assay based on a mixed lymphocyte reaction (MLR), such as that shown in Example 2, peripheral blood mononuclear cells (PBMCs) from 2 donors were mixed together with CD4+CD25+ Treg cells (Treg lymphocytes) purified from one of them, by means of using a commercial kit (Ref 130091072, Miltenyi Biotec, Bergisch Gladbach, Germany) following the instructions of the manufacturer. After the purification, the cells were analyzed by flow cytometry, a purity of approximately 90% being obtained in all the assays. This MLR assay was carried out incubating 10^5 PBMC cells from each donor and 2×10^4 Treg lymphocytes in the presence or absence of peptide P60 (SEQ ID NO: 1), for the purpose of assaying its capacity to block the inhibitory effect of human Treg lymphocytes. After 3 days of culture, 0.5 μCi/well of tritiated thymidine (Amersham, Pharmacia) and after 16 hours, the plates were harvested using a harvester (Filtermate 96 harvester; Packard Instrument, Meriden, Conn.) and the radioactivity incorporated to the cell DNA was counted (as a measurement of the cell proliferation) by means of a scintillation counter (Topcount; Packard Instrument).

CT26 colon cancer line = assay: CT26 colon cancer tumor model, antitumor vaccination with peptide AH1; type: in vivo, BALB/c mice; conditions: for protection from tumor: n=11
Text: The tumor model used for this assay has been a model based on the CT26 colon cancer line, described in a previous work of the laboratory of the inventors (Casares et al, 2001. Eur J Immunol 31:1780-9; Casares et al., 2003. J Immunol 171:5931-9), since the inventors had previously shown that, in this model, Treg lymphocytes have an immunosuppressive effect favoring tumor growth (Casares et al., 2003, mentioned above).
The synthetic peptide (SEQ ID NO: 8) was used as a vaccine antigen, which peptide contains a cytotoxic T determinant for the CT26 line (Huang, A. Y. et al, Proc Natl Acad Sci USA, 1996. 93:9730-9735) and the immunization of which delays the tumor growth to a certain extent, without eliminating it due to the presence of Treg lymphocytes (Casares et al., 2003, mentioned above).
Briefly, groups of 6 six-week old BALB/c mice (Charles River) were immunized with peptide AH1 (SEQ ID NO: 8) as described in Casares et al., 2001, mentioned above, in the presence or absence of peptide P60 (SEQ ID NO: 1). Ten days after the immunization, the mice were subcutaneously injected with 5×10^5 CT26 cells, and the tumor evolution was measured.

[5] = tested on: Karpas 299 human cell line; assay: Mixed lymphocyte reaction (MLR) of PBMCs from 2 donors with Karpas 299 cells, IFN-γ ELISA; type: cell-based
Experimental: After verifying and confirming its profile, in vitro assays were carried out using the Karpas 299 human cell line (ACC-31, DSMZ, Germany), derived from a human lymphoma with a regulatory T cell [Treg lymphocytes] profile (Wolke et al Int J Mol. Med. 2006 February; 17(2):275-8), the need to isolate CD4+CD25+ cells is thus prevented.
To evaluate the effect of peptide P60 (SEQ ID NO: 1) on the immunosuppressive activity of the Karpas 299 cell line, a “mixed lymphocyte reaction” (MLR) assay was carried out using peripheral blood mononuclear cells (PBMCs) from 2 donors in the presence or absence of the Karpas 299 cell line. This assay (MLR) is based on co-culturing lymphocytes of a different origin, with different histocompatibilities, which will recognize one another as foreign. This reaction makes lymphocytes proliferate, secreting cytokines. For this assay, 100,000 cells of each donor (positive MLR control) were cultured in a 96-well plate, alone or in the presence of 10,000 cells of the Karpas 299 cell line.
After 48 hours, the supernatants were extracted to measure interferon-gamma (IFN-γ) by means of a commercial ELISA (Ref 555138, Pharmingen, San Diego, Calif., United States). […] In this assay of inhibition of the MLR due to the presence of the Karpas 299 cell line, the capacity of peptide P60 (SEQ ID NO: 1) to restore the production of IFN-γ due to the MLR was analyzed.

human Treg lymphocytes [6] = assay: IFN-γ production by human CD4 effector T lymphocytes stimulated with anti-CD3/CD28 microspheres with human Treg lymphocytes; type: cell-based; conditions: 100 μM, anti-CD3/CD28 stimulus, 48 hours, ELISA
Experimental: This assay is based on the measurement of the production of IFN-γ in a culture of 10^5 human CD4 effector T lymphocytes cultured with microspheres containing anti-CD3 and anti-CD28 antibodies adhered to their surface (Dynabeads® CD3/CD28; Ref 111.31, Dynal), in the presence or absence of 2×10^4 human Treg lymphocytes (purified as indicated above). This assay was carried out in the presence or absence of peptide P60 (SEQ ID NO: 1) to assess its inhibitory effect of Treg lymphocytes. After 48 hours of culture, the presence of IFN-γ in the culture supernatants was measured by means of a commercial ELISA (Ref 555138, Pharmingen).

murine Treg lymphocytes [7] = assay: Activation of BALB/c mouse splenocytes with anti-CD3 antibodies with murine Treg lymphocytes, IFN-γ; type: cell-based; conditions: 100 μM
Experimental: Firstly, assays of activation of BALB/c mouse splenocytes (Charles River) in the presence of anti-CD3 antibodies (Ref 553057, BD Biosciences) were carried out.

scurfin = target: T1, scurfin (Homo sapiens, UniProt Q9BZS1); assay: Surface plasmon resonance (SPR) analysis of peptide binding to immobilized scurfin; conditions: peptide 10 μM, scurfin immobilized on CM5 chip, compared with irrelevant control peptide (SEQ ID NO: 6)
T1 construct: GST (glutathione-S-transferase); made in house; host or cells: Escherichia coli BL21
T1 sequence (Q9BZS1 1-431): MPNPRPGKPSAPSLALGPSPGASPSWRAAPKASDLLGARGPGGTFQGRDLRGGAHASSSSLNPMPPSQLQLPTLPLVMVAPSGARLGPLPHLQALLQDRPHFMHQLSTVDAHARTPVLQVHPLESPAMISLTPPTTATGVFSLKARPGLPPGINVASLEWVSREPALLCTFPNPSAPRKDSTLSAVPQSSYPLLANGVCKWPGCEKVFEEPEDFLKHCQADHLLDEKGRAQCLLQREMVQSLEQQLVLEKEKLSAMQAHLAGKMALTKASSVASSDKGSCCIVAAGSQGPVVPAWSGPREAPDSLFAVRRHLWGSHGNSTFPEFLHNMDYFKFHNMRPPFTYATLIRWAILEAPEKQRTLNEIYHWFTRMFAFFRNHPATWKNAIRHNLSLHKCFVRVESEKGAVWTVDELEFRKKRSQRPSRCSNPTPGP
Text: The capacity of peptide P60 (SEQ ID NO: 1) to bind to scurfin was verified by means of the biomolecular interaction surface plasmon resonance (SPR) using the Biosensor BIAcore X (BIAcore, AB, Uppsala, Sweden). Scurfin, produced in E. coli and purified by affinity using GSTrap columns (Amersham, Pharmacia), was covalently immobilized on the surface of the flow cell 2 (FC2) of a CM5 chip (Sensor Chip CM Ref 116Br-1000-14, BIAcore, General Electrics), as described in De Crescenzo et al. (JBC 2001, Vol 276; 29632-29643). Flow cell 1 (FC1), on the surface of which scurfin is not immobilized, was used as a reference reflow cell. The solutions of each peptide (10 μM) were injected three times in a 10 mM Hepes buffer, 150 mM NaCl, pH 7.4 at a flow of 30 μl/min. The binding curves were processed by means of subtracting the response in FC1 from that obtained in FC2. The response in equilibrium was compared between peptide P60 (SEQ ID NO: 1) and an irrelevant control peptide of the same size (length), specifically, the peptide the amino acid sequence of which is shown in SEQ ID NO: 6, corresponding to amino acids 123-137 of the human CD81 receptor. Each response was multiplied by a mass correction factor: MW(P60)/MW(P), wherein MW(P60) is the molecular weight of peptide P60 (SEQ ID NO: 1) and MW(P) is that of the control peptide.
For the purpose of evaluating the importance of the amino acids placed at the amino-terminal and carboxyl-terminal ends of peptide P60 (SEQ ID NO: 1), truncated forms of said peptide P60 (SEQ ID NO: 1) were chemically synthesized as has been mentioned above, and the capacity of said truncated forms to bind to scurfin was assayed by means of SPR, according to the protocol previously described in section 1.3.
Likewise, the capacity of said peptides (SEQ ID NO: 2, SEQ ID NO: 3 and SEQ ID NO: 4) to bind to scurfin was assayed by means of SPR in the previously mentioned conditions.

With RDFQSFRKMWPFFAM [P60] the “inhibition of the immunosuppressive effect of Treg lymphocytes on proliferation of effector cells in response to an MLR” value (murine Treg lymphocytes [1]) was “capable of inhibiting the immunosuppressive effect of Treg lymphocytes on the proliferation of effector cells”, the “inhibition of the immunosuppressive effect of Treg lymphocytes on production of IFN-γ by antigen-specific effector cells” value (murine Treg lymphocytes [2]) was “capable of inhibiting the immunosuppressive effect of Treg lymphocytes on the production of IFN-γ” and the “expression of luciferase (NF-κB reporter) inhibited by scurfin” value [3] was “restores the expression of luciferase”. The “restoration of the MLR (cell proliferation) inhibited by human Treg lymphocytes” value (human Treg lymphocytes [4]) was “capable of partly restoring the MLR”, the protection from tumor (CT26 colon cancer line; mice immunized with peptide AH1 and treated with P60 50 nm/mouse i.p. days 0, 2, 4, 6, 8, 10) was 82% and the “mice that developed a palpable tumor” value (CT26 colon cancer line; of the 11 mice immunized with peptide AH1 and treated with P60) was 2. The protection from tumor (CT26 colon cancer line; peptide P60 alone, non-immunized mice) was 10%, the “restoration of the production of IFN-γ due to the MLR inhibited by Karpas 299 cells” value ([5]; 100 μM, 48 hours, ELISA) was “capable of partly recovering the production of IFN-γ” and the “inhibitory activity on the immunosuppressive action of Treg cells among the 25 peptides selected” value ([5]; several in vitro assays (Example 2)) was “highest inhibitory activity”. The “restoration of the production of IFN-γ inhibited by human Treg lymphocytes” value (human Treg lymphocytes [6]) was “partly restoring the production of IFN-γ”, the “inhibition of the immunosuppressive effect of Treg lymphocytes on production of IFN-γ in response to anti-CD3” value (murine Treg lymphocytes [7]) was “capable of inhibiting the immunosuppressive effect of Treg lymphocytes on the production of IFN-γ” and the “capacity to bind to scurfin (SPR signal)” value (scurfin) was “positive signal”.
“RDFQSFRKMWPFFA [T(1-14), truncated form of P60, amino acids 1-14 of P60]” was tested, and the “capacity to bind to scurfin (SPR signal)” value (scurfin) was “does not destroy the capacity of the peptide to bind to scurfin”.
For “T(2-15): truncated form of P60, amino acids 2-15 of P60 (DFQSFRKMWPFFAM)”, the “capacity to bind to scurfin (SPR signal)” value (scurfin) was “inhibits the capacity of the peptide to bind to scurfin”.
In the case of “RDFQSFRKMWPFF [T(1-13), truncated form of P60, amino acids 1-13 of P60]”, the “capacity to bind to scurfin (SPR signal)” value (scurfin) is reported as “does not destroy the capacity of the peptide to bind to scurfin”.
Substance “AH1: synthetic peptide used as vaccine antigen, contains a cytotoxic T determinant for the CT26 line (SPSYVYHQF) [reference compound]” has a protection from tumor (CT26 colon cancer line; mice immunized with AH1 alone) of 0%.
